# Measurements: patent US7407988B2, “Carbamic acid compounds comprising a sulfonamide linkage as HDAC inhibitors” (Topotarget UK Limited, priority 2000, dated 2008)
# pIC50: −log10 of the molar value. Like-named read-outs stand apart in the source and are kept apart here.
# Assays:
# [1] = system: K11 HPV E7 transformed human keratinocyte line; assay: Secondary assay: cell proliferation WST-1, K11; type: cell-based; details: Table 2, 48 h, read-out: Cell Proliferation Inhibition WST-1 (IC50 unless otherwise specified) K11
# [2] = system: NHEK-Ad primary human adult keratinocyte line; assay: Secondary assay: cell proliferation WST-1, NHEK-Ad; type: cell-based; details: 48 h, read-out: Cell Proliferation Inhibition WST-1 (IC50 unless otherwise specified) NHEK-AD
# JURKAT human T-cell line = assay: Secondary assay: cell proliferation WST-1, Jurkat; type: cell-based; details: Table 2, 48 h, read-out: Cell Proliferation Inhibition WST-1 (IC50 unless otherwise specified) Jurkat
# HeLa cells = assay: Secondary assay: cell proliferation WST-1, HeLa; type: cell-based; details: Homo sapiens, read-out: Cell Proliferation Inhibition WST-1 (IC50 unless otherwise specified) HeLa
# HDAC (HeLa cell extract) = assay: Primary assay: deacetylase activity, HeLa cell extract as source of HDAC; type: biochemical, human
# Source text: (§1) Briefly, this assay relies on the release of radioactive acetate from a radioactively labelled histone fragment by the action of HDAC enzyme. Test compounds, which inhibit HDAC, reduce the yield of radioactive acetate. Signal (e.g., scintillation counts) measured in the presence and absence of a test compound provide an indication of that compound's ability to inhibit HDAC activity. Decreased activity indicates increased inhibition by the test compound.
# (§2) The histone fragment was an N-terminal sequence from histone H4, and it was labelled with radioactively labelled acetyl groups using tritiated acetylcoenzyme A (coA) in conjunction with an enzyme which is the histone acetyltransferase domain of the transcriptional coactivator p300. […] The acetylated peptide was then separated from free acetyl coA by size exclusion chromatography on Sephadex G-15 (Sigma G-15-120), using distilled H2O as the mobile phase.
# (§3) After purification of the radiolabelled histone fragment, it was incubated with a source of HDAC (e.g., an extract of HeLa cells (a rich source of HDAC), recombinantly produced HDAC1 or HDAC2) and any released acetate was extracted into an organic phase and quantitatively determined using scintillation counting. By including a test compound with the source of HDAC, that compound's ability to inhibit the HDAC was determined.
# Two cell volumes of extraction buffer were used, and particulate material was centrifuged out (20800 g, 4° C., 10 min). The supernatant extract having deacetylase activity was aliquotted and frozen for storage.
# (§4) A source of HDAC (e.g., 2 μL of crude HeLa extract, 5 μL of HDAC1 or HDAC2; in elution buffer, as above) was incubated with 3 μL of radioactively labelled peptide along with appropriate dilutions of candidate compounds (1.5 μL) in a total volume of 150 μL of buffer (20 mM Tris pH 7.4, 10% glycerol). The reaction was carried out at 37° C. for one hour, after which the reaction was stopped by adding 20 μL of 1 M HCl/0.4 M sodium acetate. […] Radioactivity was measured using a Tri-Carb 21 00TR Liquid Scintillation Analyzer (Packard).
# (§5) Percent activity (% activity) for each test compound was calculated as: % activity={(S^C−B)/(S°−B)}×100 wherein S^C denotes signal measured in the presence of enzyme and the compound being tested, S° denotes signal measured in the presence of enzyme but in the absence of the compound being tested, and B denotes the background signal measured in the absence of both enzyme and compound being tested.
# human HDAC1 = molecular target: T1, human HDAC1 (Homo sapiens, UniProt Q13547); assay: Primary assay: deacetylase activity, recombinantly produced HDAC1; type: biochemical; details: Table 1; recombinant HDAC1; read-out: HDAC Inhibition (IC50 unless otherwise specified) HDAC1
# T1 construct: Full length human HDAC1 was cloned by PCR; Flag (C); implied by Ni-NTA purification) (N); made in house; host or cells: SF9 insect cells (baculovirus)
# Source text: as §1, §2, §3
# Full length human HDAC1 was cloned by PCR using a λgt11 Jurkat cDNA library (Clontech-HL5012b). […] A second PCR was carried out in order to amplify a fragment containing the HDAC1 sequence fused to the Flag tag.
# Amplification of recombinant viruses was performed according to the Pharmingen Instruction Manual.
# For protein production, 2×10^7 cells were infected with the appropriate recombinant virus for 3 days. Cells were then harvested and spun at 3,000 rpm for 5 minutes. They were then washed twice in PBS and resuspended in 2 pellet volumes of lysis buffer (25 mM HEPES pH 7.9, 0.1 mM EDTA, 400 mM KCl, 10% glycerol, 0.1% NP-40, 1 mM AEBSF). […]
# as §4, with “glycerol).” for “glycerol). The reaction was carried out at 37° C. for one hour, after which the reaction was stopped by adding 20 μL of 1 M HCl/0.4 M sodium acetate.”
# as §5
# human HDAC2 = molecular target: T2, human HDAC2 (Homo sapiens, UniProt Q92769); assay: Primary assay: deacetylase activity, recombinantly produced HDAC2; type: biochemical; details: Table 1; recombinant HDAC2; read-out: HDAC Inhibition (IC50 unless otherwise specified) HDAC2
# T2 construct: Full length human HDAC2 was subcloned; Flag (carried over from the HDAC2-pFlag-CTC construct; inferred by analogy to HDAC1) (C); implied by Ni-NTA purification) (N); made in house; host or cells: SF9 insect cells (baculovirus)
# [3] = Table 1, read-out: HDAC Inhibition (IC50 unless otherwise specified) HeLa
# [4] = comparative tables, HDAC inhibition, read-out: HeLa IC50
# [5] = Homo sapiens, Keratinocyte, Table 2, NHEK-AD
# T1 sequence (Q13547 whole entry): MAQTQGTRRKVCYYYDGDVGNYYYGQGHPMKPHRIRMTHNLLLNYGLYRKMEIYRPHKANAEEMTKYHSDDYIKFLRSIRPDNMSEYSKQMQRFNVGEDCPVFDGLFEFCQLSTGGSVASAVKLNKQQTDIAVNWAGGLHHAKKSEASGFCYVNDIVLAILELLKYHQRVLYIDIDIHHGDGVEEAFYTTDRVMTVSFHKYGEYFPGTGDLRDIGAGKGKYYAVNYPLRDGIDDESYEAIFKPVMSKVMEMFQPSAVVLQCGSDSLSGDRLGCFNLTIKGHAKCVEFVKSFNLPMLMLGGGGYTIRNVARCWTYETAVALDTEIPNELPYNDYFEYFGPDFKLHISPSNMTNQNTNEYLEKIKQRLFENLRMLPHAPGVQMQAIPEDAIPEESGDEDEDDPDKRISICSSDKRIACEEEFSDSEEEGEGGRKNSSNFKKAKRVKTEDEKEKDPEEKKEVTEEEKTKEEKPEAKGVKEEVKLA
# T2 sequence (Q92769 whole entry): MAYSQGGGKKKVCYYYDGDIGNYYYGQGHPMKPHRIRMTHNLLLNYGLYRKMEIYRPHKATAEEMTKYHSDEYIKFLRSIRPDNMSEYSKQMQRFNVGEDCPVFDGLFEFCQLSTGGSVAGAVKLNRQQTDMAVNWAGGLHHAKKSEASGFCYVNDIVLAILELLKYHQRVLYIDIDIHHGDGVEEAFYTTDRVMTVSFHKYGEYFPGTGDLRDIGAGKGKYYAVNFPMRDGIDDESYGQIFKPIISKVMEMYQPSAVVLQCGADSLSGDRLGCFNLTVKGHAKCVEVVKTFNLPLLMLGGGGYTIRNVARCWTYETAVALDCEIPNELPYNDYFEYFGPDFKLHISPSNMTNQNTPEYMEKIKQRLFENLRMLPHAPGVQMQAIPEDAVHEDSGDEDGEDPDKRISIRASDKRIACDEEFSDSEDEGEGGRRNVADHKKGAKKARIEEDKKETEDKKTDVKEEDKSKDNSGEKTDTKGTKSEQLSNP
Structure (SMILES),pIC50 [1],"pIC50 ([2]; Table 2, NHEK-AD)",pIC50 (JURKAT human T-cell line),"pIC50 ([1]; Homo sapiens, Keratinocyte)","pIC50 ([2]; Homo sapiens, Keratinocyte)",pIC50 (JURKAT human T-cell line; Homo sapiens),pIC50 (HeLa cells; 48 h),pIC50 (HDAC (HeLa cell extract); [3]),pIC50 (HDAC (HeLa cell extract); [4]),melting point,pIC50 (human HDAC1),"pIC50 (HeLa cells; Table 2, 48 h)","pIC50 [2, 5]",pIC50 (human HDAC2)
"Nc1ccccc1NC(=O)c1ccc(CNC(=O)OCc2cccnc2)cc1 [MS-275, reference compound]",5.04,5.51,6.44,–,–,–,–,–,–,–,–,–,–,–
"O=C(/C=C/C#Cc1cccc(NS(=O)(=O)c2ccccc2)c1)NO [Oxamflatin, (2E)-5-[3-[(phenylsulfonyl)amino]phenyl]-pent-2-en-4-ynohydroxamic acid, reference compound]",–,–,–,5.34,5.45,6.59,5.96,7.42,7.42,–,–,–,–,–
"Cc1ccc(S(=O)(=O)Nc2cccc(/C=C/C(=O)NO)c2)cc1 [PX089342, N-Hydroxy-3-[3(toluene-4-sulfonylamino)-phenyl]-acrylamide]",–,–,–,–,–,–,–,6.90,6.90,147 °C,7.30,5.39,–,–
"O=C(/C=C/c1cccc(S(=O)(=O)Nc2ccccc2)c1)NO [PX105684, N-Hydroxy-3-(3-phenylsulfamoylphenyl)acrylamide]",–,–,–,5.62,–,6.70,–,–,–,–,–,5.66,5.82,–
CN(c1ccccc1)S(=O)(=O)c1cccc(/C=C/C(=O)NO)c1 [PX105685],–,–,–,–,–,–,5.14,–,–,–,–,–,–,6.22
COc1ccc(NS(=O)(=O)c2cccc(/C=C/C(=O)NO)c2)cc1 [PX105844],–,–,–,–,–,–,–,7.82,–,186 °C,7.54,6.40,–,–
Cc1ccc(NS(=O)(=O)c2cccc(/C=C/C(=O)NO)c2)cc1 [PX106508],–,–,–,5.46,–,6.52,–,7.51,7.51,200 °C,7.05,5.80,–,–
O=C(/C=C/c1cccc(S(=O)(=O)NCCc2ccccc2)c1)NO [PX106512],–,–,–,5.62,–,6.68,–,7.66,7.66,114 °C,6.34,5.72,–,–
"O=C(/C=C/c1cccc(S(=O)(=O)Nc2cccc3ccccc23)c1)NO [PX117228, N-Hydroxy-3-[3-(naphthalen-1-ylsulfamoyl)-phenyl]-acrylamide]",–,–,–,5.85,5.92,6.82,6.10,8.15,8.15,180 °C,–,–,–,–
O=C(CCCCCCCS(=O)(=O)Nc1ccccc1)NO [PX117245],–,–,–,–,–,5.96,–,7.80,–,87 to 88 °C,–,6.51,6.28,–
"O=C(/C=C/c1cccc(S(=O)(=O)Nc2ccc3ccccc3c2)c1)NO [PX117445, N-Hydroxy-3-[3-(naphthalen-2-ylsulfamoyl)-phenyl]-acrylamide]",–,–,–,5.92,–,6.89,–,8.70,–,164 °C,–,5.96,6.12,–
"O=C(/C=C/c1cccc(S(=O)(=O)Nc2ccccc2F)c1)NO [PX117787, 3-[3-(2-Fluoro-phenylsulfamoyl)-phenyl]-N-hydroxy-acrylamide]",–,–,–,5.92,–,6.30,–,7.17,–,102 to 103 °C,–,5.59,–,–
"O=C(/C=C/c1cccc(S(=O)(=O)Nc2cccc(F)c2)c1)NO [PX117788, 3-[3-(3-Fluoro-phenylsulfamoyl)-phenyl]-N-hydroxy-acrylamide]",–,–,–,5.77,–,6.54,–,7.44,–,130 to 133 °C,–,5.70,–,–
"O=C(/C=C/c1cccc(S(=O)(=O)Nc2ccc(OC(F)F)cc2)c1)NO [PX117789, 3-[3-(4-Difluoromethoxy-phenylsulfamoyl)-phenyl]-N-hydroxy-acrylamide]",–,–,–,6.10,–,6.52,–,7.52,–,91 to 93 °C,–,5.96,–,–
"COc1ccc(C(F)(F)F)cc1NS(=O)(=O)c1cccc(/C=C/C(=O)NO)c1 [PX117791, N-Hydroxy-3-[3-(2-methoxy-5-trifluoromethyl-phenylsulfamoyl)-phenyl]-acrylamide]",–,–,–,5.17,–,5.89,–,6.60,–,207 °C (dec.),–,5.44,–,–
"O=C(/C=C/c1ccc(S(=O)(=O)Nc2ccc(-c3ccccc3)cc2)cc1)NO [PX117792, N-Hydroxy-3-[4-(biphenyl-4-ylsulfamoyl)-phenyl]-acrylamide]",–,–,–,6.40,–,6.37,–,7.32,–,211 to 211.5 °C,–,5.85,–,–
"O=C(/C=C/c1ccc(NS(=O)(=O)c2ccc(-c3ccccc3)cc2)cc1)NO [PX117793, (E)-N-Hydroxy-3-[4-(4-biphenylsulfonylamino)-phenyl]-2-propenamide]",–,–,–,5.57,–,6.30,–,7.30,–,190 to 191.5 °C,–,5.70,–,–
"COc1ccc(S(=O)(=O)Nc2ccc(/C=C/C(=O)NO)cc2)cc1OC [PX117794, (E)-N-Hydroxy-3-[4-(3,4-dimethoxyphenylsulfonylamino)-phenyl]-2-propenamide]",–,–,–,5.64,–,6.22,–,7.62,–,178.5 to 179 °C,–,5.48,–,–
"O=C(/C=C/c1ccc(S(=O)(=O)Nc2ccc(Br)cc2)cc1)NO [PX117795, N-Hydroxy-3-[4-(4-bromo-phenylsulfamoyl)-phenyl]-acrylamide]",–,–,–,5.82,–,6.29,–,7.89,–,219 to 220.5 °C,–,5.47,–,–
CCn1c2ccccc2c2cc(NS(=O)(=O)c3cccc(/C=C/C(=O)NO)c3)ccc21 [PX117798],–,–,–,6.46,–,5.44,–,7.30,–,130 to 133 °C,–,6.05,–,–
"CC(/C=C/C(=O)NO)=C\[C@@H](C)C(=O)c1ccc(N(C)C)cc1 [TSA, trichostatin A, reference compound]",–,–,–,6.42,–,7.38,–,–,–,–,–,6.46,6.70,–
